The test system of data set [1] is human umbilical vein endothelial cells (HUVECs). Conditions: HUVEC, 5 hours treatment, adrenaline 3-120 μg/ml, MTT.
Procedure: The biocompatibility of the formulation was tested on human umbilical vein endothelial cells (HUVECs) obtained from a pool of healthy donors (Promocell, Germany). The cells were cultured in Endothelial Cell Growth Medium 2 (ECGM 2, Promocell) enriched with penicillin (50 units/ml) and streptomycin (50 mg/ml), and maintained in an incubator with a humidified atmosphere, CO2 (5%) at 37° C. The cells were seeded in 96-well plates 24 hours before the treatment with liposomes (density 4×10^4 cells/well). […] At the end of the treatment, the medium was removed and replaced with 100 μl of a solution of 3-(4,5-dimethylthiazol-2-yl)-2,5-diphenyltetrazolium bromide (MTT) in PBS (0.5 mg/ml). After 4 hours of incubation at 37° C., the MTT was removed and 100 μl of dimethyl sulphoxide (DMSO) was added in each well. Absorbance was measured at 570 nm by means of a Synergy 4 plate reader (BioTek, Winooski, Vt., USA). The results are expressed as a percentage of viable cells compared to the untreated cells.
For data set [2] the following is noted: control solution, same conditions, PBS pH 7.4, 37° C.
Procedure: The in vitro studies on the release of adrenaline from the liposomal formulations were conducted with a modified dialysis technique or by means of a “sample and separate” method.
In the former case, a cellulose membrane (Spectra/Por®: cut-off 12-14 kDa MW, pore size 3 nm, Spectrum Laboratories Inc., USA) was positioned between the two compartments of a Franz vertical diffusion cell (Rofarma, Milan). The receptor compartment, with a capacity of 6.5 ml and a diffusion area of 0.636 cm2, was filled with a phosphate buffer solution (PBS pH 7.4) containing sodium metabisulphite (0.053 M), stirred constantly by a small magnetic stirrer at a controlled temperature of 37° C. for the whole duration of the experiment.
At 1-hour time intervals, for the 8 hours of the experiment, 1 ml of the solution in the receptor compartment was removed and restored with fresh buffer. The amount of adrenaline contained in the samples removed was analysed by HPLC.
Use was made of an XTerra C18 column (3.5 μiη, 4.6×150 mm, Waters), with a mobile phase composed of 86.5% water, 13.45% acetonitrile and 0.05% acetic acid (v/v) at a flow rate of 0.8 ml/min. A calibration curve was constructed using standard solutions (100-1 ng/μl), having a correlation coefficient (R2) of 0.999.
For data set [3] the following is noted: cited from earlier work.

The values that follow come from patent publication US20200222323A1, “ADRENALIN-CONTAINING DOUBLE LAYERED LIPID VESICLES FOR USE IN THE TREATMENT OF CARDIAC EMERGENCIES” (UNIVERSITÀ DEGLI STUDI DI CAGLIARI, priority 2017, published 2020).

Consider `CNCC(O)c1ccc(O)c(O)c1` (stereo not drawn) [adrenaline], for which the “viability of treated versus untreated cells” value in data set [1] is listed as “no significant difference”. The “total amount of drug released after the 8 hours of the experiment” value in data set [2] was 70±3%. In data set [3], the half-life in vivo was ≤ 5 min.
